Measured values reported in patent US7297551B2, “Recombinant proteins and peptides for endotoxin biosensors, endotoxin removal, and anti-microbial and anti-endotoxin therapeutics” (priority 1998, dated 2007).

Legend:
[1] = target: T1, rFCEE (truncated C. rotundicauda Factor C, CrFC21EE, amino acids 1-766, from P. pastoris) (Carcinoscorpius rotundicauda, UniProt Q26422); test: Modified Western blot of LPS/lipid A; type: binding; conditions: compared with rFC
T1 construct: Pichia pastoris, Biomax-50 enriched
T1 sequence (Q26422 1-766): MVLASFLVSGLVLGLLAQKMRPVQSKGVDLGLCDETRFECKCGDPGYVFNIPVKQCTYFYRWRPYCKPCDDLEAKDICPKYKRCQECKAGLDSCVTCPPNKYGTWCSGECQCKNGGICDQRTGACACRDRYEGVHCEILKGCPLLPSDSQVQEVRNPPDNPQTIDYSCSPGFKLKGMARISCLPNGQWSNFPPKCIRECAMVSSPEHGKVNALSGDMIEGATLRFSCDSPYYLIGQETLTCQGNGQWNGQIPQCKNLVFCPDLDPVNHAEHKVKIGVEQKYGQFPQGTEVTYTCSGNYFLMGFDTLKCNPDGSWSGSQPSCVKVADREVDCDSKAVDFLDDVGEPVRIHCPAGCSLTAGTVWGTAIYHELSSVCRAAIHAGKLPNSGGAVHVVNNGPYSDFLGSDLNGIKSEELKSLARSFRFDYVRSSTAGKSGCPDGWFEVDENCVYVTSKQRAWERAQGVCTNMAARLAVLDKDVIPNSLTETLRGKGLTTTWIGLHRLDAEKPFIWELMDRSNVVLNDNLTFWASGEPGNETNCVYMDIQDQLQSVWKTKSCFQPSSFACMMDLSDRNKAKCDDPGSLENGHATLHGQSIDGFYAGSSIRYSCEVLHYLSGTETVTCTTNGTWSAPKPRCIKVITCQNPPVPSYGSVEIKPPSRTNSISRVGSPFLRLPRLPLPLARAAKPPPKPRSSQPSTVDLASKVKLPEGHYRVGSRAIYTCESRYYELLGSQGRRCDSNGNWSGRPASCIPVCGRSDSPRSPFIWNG
Description: (§1) LPS from E. coli 055:B5 (Sigma) was reconstituted to 2 μg/μl, and diphosphoryl lipid A from E. coli K12, D31m4 LPS (List Biologicals, Inc., USA) was made up to 1 μg/μl. The LPS-binding assay was based on modifications of earlier described protocols (45,61). Briefly, 10 μg aliquots of LPS/lipid A were electrophoresed on a denaturing 15% SDS-polyacrylamide gel and electroblotted onto Immobilon™ PVDF membrane. The membrane was cut into strips and each LPS/lipid A strip was subsequently incubated with 300 μg of proteins containing rFC. Detection of rFC binding to lipid A was accomplished by incubation with anti-Factor C antibody followed by alkaline phosphatase-conjugated secondary goat anti-rabbit antibody (Dako) and BCIP/NBT colorimetric substrate (Moss, Inc., USA).

[2] = target: T2, rFCSN (truncated C. rotundicauda Factor C, CrFC26SN, lacking the LPS-binding domain, from P. pastoris) (Carcinoscorpius rotundicauda, UniProt Q26423); test: Modified Western blot of LPS/lipid A
T2 construct: Pichia pastoris
T2 sequence (Q26423 1-1083): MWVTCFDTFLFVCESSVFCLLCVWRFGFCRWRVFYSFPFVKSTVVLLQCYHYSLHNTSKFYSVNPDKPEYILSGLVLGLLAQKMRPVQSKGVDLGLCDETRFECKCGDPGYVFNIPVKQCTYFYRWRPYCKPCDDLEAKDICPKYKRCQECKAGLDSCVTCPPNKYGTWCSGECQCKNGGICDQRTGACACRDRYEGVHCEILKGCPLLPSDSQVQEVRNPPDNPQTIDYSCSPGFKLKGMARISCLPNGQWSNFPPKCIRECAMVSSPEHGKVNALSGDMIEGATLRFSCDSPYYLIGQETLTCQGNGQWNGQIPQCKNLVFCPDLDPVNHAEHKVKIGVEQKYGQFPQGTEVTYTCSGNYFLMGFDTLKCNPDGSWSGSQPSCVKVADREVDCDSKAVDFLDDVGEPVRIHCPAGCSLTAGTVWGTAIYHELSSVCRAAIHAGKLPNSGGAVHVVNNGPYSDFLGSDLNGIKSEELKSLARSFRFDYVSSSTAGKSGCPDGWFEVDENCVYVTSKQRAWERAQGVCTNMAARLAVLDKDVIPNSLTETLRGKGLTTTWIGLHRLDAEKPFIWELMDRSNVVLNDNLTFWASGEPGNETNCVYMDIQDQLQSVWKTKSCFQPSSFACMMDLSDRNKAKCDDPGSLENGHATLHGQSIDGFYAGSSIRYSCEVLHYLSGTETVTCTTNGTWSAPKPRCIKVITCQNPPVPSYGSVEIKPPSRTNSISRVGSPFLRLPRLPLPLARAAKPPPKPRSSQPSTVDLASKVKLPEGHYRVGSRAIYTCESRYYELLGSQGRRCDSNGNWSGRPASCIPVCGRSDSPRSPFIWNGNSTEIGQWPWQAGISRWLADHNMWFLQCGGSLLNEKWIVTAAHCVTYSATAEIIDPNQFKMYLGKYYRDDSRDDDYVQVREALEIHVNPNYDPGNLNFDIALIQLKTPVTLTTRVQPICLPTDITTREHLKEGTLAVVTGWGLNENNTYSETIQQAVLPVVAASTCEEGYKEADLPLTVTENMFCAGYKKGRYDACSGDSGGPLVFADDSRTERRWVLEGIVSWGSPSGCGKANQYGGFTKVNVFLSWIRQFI
Description: as §1

Substance: lipid A
- binding to lipid A moiety of LPS [1]: less strongly
- binding to the 7-20 kDa lipid A bands [2]: No binding
